Source: US11952582B2, “Herbicide-resistance gene and application thereof in plant breeding” (priority 2017, dated 2024)
Entries after “also recorded” stand apart in the source; their conditions may differ.

Experiments:
[1] = test system: Arabidopsis WT, OE At, OE Pa, OE M3 seedlings; test: NBT and DAB staining of Arabidopsis seedlings (superoxide, hydrogen peroxide); type: in vivo, Arabidopsis thaliana; conditions: 100 nM, 72 h
Procedure: (§1) 2 week-old Arabidopsis seedlings were cultured continuously in ½ MS mediums with 100 nM mesotrione and without mesotrione for 72 h, and then transferred to 3.5 mg/mL NBT staining solution (prepared with potassium phosphate buffer containing 10 mM NaN3) and soaked in vacuum for 2 min, and then placed on a shaker overnight. The NBT-stained plants were placed in a mixed solution of acetic acid:glycerol:ethanol=1:1:3 (v/v/v) and destained at 100° C. for 5 min, then reserved in a mixed solution of glycerol:ethanol=1:4 (v/v), and was used to take photos to record the test results.
as §1, with “DAB” for “3.5 mg/mL NBT”, “solution,” for “solution (prepared with potassium phosphate buffer containing 10 mM NaN3)”, “for 7-8 hours.” for “overnight.”, “DAB-stained” for “NBT-stained”, “glycerol: ethanol=1:4” for “glycerol:ethanol=1:4”
2 week-old T3 generation Arabidopsis seedlings of WT, OE At, OE Pa and OE M3 were transfered to different control (½ MS medium) and treatment medium (½ MS medium containing 100 nM mesotrione) for 72 h, and then stained with NBT and DAB to detect the accumulation of reactive oxygen species.

[2] = test system: WT and T0 OE SDM rice seedlings; test: Rice resistance to herbicide at pot level (spray); type: in vivo; conditions: 200 μM spray, 21 d (3 weeks)
Procedure: Transgenic T0 generation OE SDM and WT rice seedlings were planted in pots containing soil and placed in an artificial climate room (30° C. 16 h light/28° C. 8 h dark) for growth. 3 weeks later, when the rice seedlings reached a height of 15-20 cm, 200 μM mesotrione (prepared with 0.1% Tween-20) and 0.1% Tween-20 were sprayed to OE SDM and WT rice seedlings, respectively. Then, the phenotype should be observed every week. The oxidative stress index was measured 1 week after the treatment, the chlorophyll content of the leaves was measured 2 weeks after the treatment, and the experimental result was photographed 3 weeks after the treatment.

[3] = test system: WT and T0 OE SDM rice seedlings; test: Total chlorophyll content in rice leaves; type: in vivo; conditions: 200 μM
Procedure: Referring to the method of Lichtenthaler HK (1987), chlorophyll was extracted from the leaves of wild-type and T0 generation OE SDM rice seedlings which were sprayed with 200 μM mesotrione (prepared with 0.1% Tween-20) and sprayed with control 0.1% Tween-20 after 2 weeks and its content was determined. All experiments were repeated biologically 3 times, and the average value was taken.

[4] = test system: WT and T0 OE SDM rice leaves; test: Oxidative stress indexes of rice leaves (NBT, DAB staining); type: in vivo; conditions: 1 week; for O2 and H2O2 accumulation in leaves (NBT, DAB): 200 μM
Procedure: Herbicides cause the production of reactive oxygen species (ROS), leading to cell death. In order to determine the oxidation state of rice, leaves of wild-type and TO-generation OE SDM rice which were sprayed with 200 μM mesotrione (prepared with 0.1% Tween-20) and sprayed with control 0.1% Tween-20 were collected, and stained with nitroblue tetrazolium (NBT) and 3,3-diaminobenzidine (DAB), respectively, to analyze the accumulation of superoxide (O2^−) and hydrogen peroxide (H2O2).
At the end of the herbicide treatment, leaves of 4 week-old rice (normal growth for 3 weeks and herbicide spray treatment for 1 week) were placed in a 3.5 mg mL^−1 nitroblue tetrazolium (N6876, Sigma-Aldrich) staining solution (potassium phosphate buffer containing 10 mM NaN3), soaked in vacuum, and shaked on a shaker overnight. The NBT-stained plants were destained with a mixed solution of acetic acid:glycerol:ethanol=1:1:3 (v/v/v) at 100° C. for 5 min, and then reserved in a mixed solution of glycerol:ethanol=1:4 (v/v).
Rice seedling leaves were soaked in DAB staining solution for 2 min under vacuum, and then placed in a shaker for 7-8 h. The DAB-stained plants were destained with a mixed solution of acetic acid:glycerol:ethanol=1:1:3 (v/v/v) at 100° C. for 5 min, and then reserved in a mixed solution of glycerol:ethanol=1:4 (v/v).

[5] = test system: WT (William 82), OE GmHPPD and OE PaHPPD-SDM T1 soybean plants; test: Soybean resistance to herbicide at whole plant level (spraying); type: in vivo; conditions: 20 μM sprayed twice
Procedure: 20 μM mesotrione (prepared with 0.1% Tween-20) and 0.1% Tween-20 were spray to 4 week-old transgenic T1 generation OE SDMHPPD, T1 generation OE GmHPPD and WT soybean which were grown in an artificial climate chamber (27° C., […], light/dark) for the first time. A second spray was applied after 1 week. Then the phenotype of the plants was observed very day, and the experimental result was recorded by taking photos 2 weeks after the treatment.

[6] = test system: WT (William 82), OE GmHPPD and OE PaHPPD-SDM T1 soybean plants; test: Chlorophyll content and plant height of T1 generation soybean after whole plant spraying; type: in vivo; conditions: 20 μM sprayed twice, 2 weeks
Procedure: Wild type soybean William 82, T1 generation OE PaHPPD-SDM soybean and T1 generation OE GmHPPD soybean seedlings were sprayed with 20 μM mesotrione (prepared with 0.1% Tween-20) and 0.1% Tween-20 for twice, respectively. The interval between two sprays is 1 week. Two weeks after spray treatment, the total chlorophyll of the leaves was extracted and the content was determined by referring to the method of Lichtenthaler HK (1987). All experiments were repeated biologically 3 times, and the average value was taken.

## CS(=O)(=O)c1ccc(C(=O)C2C(=O)CCCC2=O)c([N+](=O)[O-])c1 [mesotrione]
[1]
  accumulation of superoxide and hydrogen peroxide of OE M3 compared with WT, OE At and OE Pa: significantly less; also recorded: significantly reduced
[2]; OE SDM rice line (T0)
  phenotype of leaves/plants: grew well; also recorded: very small visible signs of damage
[2]; WT rice
  phenotype of leaves/plants: albino and the growth was inhibited until death; also recorded: withered and died
[3]; OE PaHPPD-SDM rice
  chlorophyll content of leaves after treatment: did not decrease significantly
[3]; WT rice, 2 weeks
  total chlorophyll content in leaves compared with treated OE SDM rice: greatly reduced
[4]; 200 μM spray
  contents of superoxide, H2O2 and MDA in WT rice leaves compared with OE SDM rice leaves: significantly higher
[4]; OE SDM rice
  O2 and H2O2 accumulation in leaves (NBT, DAB): little
[4]; WT rice
  O2 and H2O2 accumulation in leaves (NBT, DAB): large number
[5]; OE PaHPPD-SDM T1 line
  phenotype after whole plant spraying: grew normally
[5]; wild-type William 82 and OE GmHPPD T1 line
  phenotype after whole plant spraying: albino symptom and growth retardation
[6]
  contents of chlorophyll a and chlorophyll b (and plant height) of treated OE PaHPPD-SDM compared with treated OE GmHPPD and wild type: significant higher
  order of plant height of treated lines: OE PaHPPD-SDM>OE GmHPPD>wild-type soybean William 82
[6]; OE GmHPPD and wild-type William 82
  contents of chlorophyll a and chlorophyll b in leaves (and plant height) compared with control treatment: significantly lower
[6]; OE PaHPPD-SDM
  contents of chlorophyll a and chlorophyll b in leaves (and plant height) compared with control: reduced; also recorded: slightly reduced
[6]; all lines
  plant height of treated soybean compared with control: lower
